The values that follow come from patent US20160115200A1, “New Use for JNK Inhibitor Molecules for Treatment of Various Diseases” (XIGEN INFLAMMATION LTD., priority 2013, published 2016).

The assay concerns THP1-PMA-differentiated macrophages. As to the kind of experiment: LPS-induced cytokine and chemokine release in PMA differentiated THP1 macrophages (ELISA). Format: cell-based, human. The source says:
The technique used is a Sandwich ELISA, which allows measuring the amount of antigen between two layers of antibodies (i.e. capture and detection antibody). The antigen to be measured must contain at least two antigenic sites capable of binding to antibody, since at least two antibodies act in the sandwich. Either monoclonal or polyclonal antibodies can be used as the capture and detection antibodies in Sandwich ELISA systems. Monoclonal antibodies recognize a single epitope that allows fine detection and quantification of small differences in antigen. A polyclonal is often used as the capture antibody to pull down as much of the antigen as possible.
In the following the procedure will be set forth describing how cytokine production from human PMA differentiated THP1 cells challenged by LPS for 6 h was induced in order to test the ability of JNK inhibitors of the present invention, in particular of a JNK inhibitor with SEQ ID NO: 172, to reduce stimulation-induced cytokine release. THP1 cells were stimulated ex-vivo by different ligands for the readout of cytokine release. At non toxic doses, JNK inhibitor efficacy is indicated by the decrease of the cytokine levels as compared to non-treated samples and is monitored by ELISA. The toxicity of the compound are evaluated by the reduction of a tretazolium salt (MTS) to formazan, giving a purple colour.
The cells were counted. The desired number of cells was taken and resuspended in the amount of media necessary to get a dilution of 1'000'000 cells/ml. 100 nM of PMA was added to induce the differentiation of the THP1 from suspension monocytes to adherent macrophages. The cells were plated into the wells in […] medium at plating densities of 100'000 cells/well. After inoculation, the plates were incubated at 37° C., 5% CO2 and 100% relative humidity 3 days to let them differentiate, prior to the addition of experimental drugs.
The plates were treated with 50 µl of medium or a solution of 4× the final desired drug concentration (0, 100 nM, 1, 3, 10 or 30 µM final for JNK compound or at 0, 10, 100 nM, 1, 3 or […] final for the SP600125 positive control). Following drug addition, the plates were incubated for an additional 1 h at 37° C., 5% CO2 and 100% relative humidity. […]
After 6 hours, 100 µl of the supernatant were transferred to new 96 well plates. Those plates were sealed and stored at −20° till the analysis by ELISA (e.g. see example 4) of the secretion of the cytokines.
Analyses of the data are performed as indicated in the ELISA (see example 4). Briefly, for ELISA: Average the triplicate readings for each standard control and each sample. Subtract the average zero standard optical density (O.D). Create a standard curve plotting the log of the cytokine concentration versus the log of the O.D and the best fit line can be determined by regression analysis. If samples have been diluted, the concentration read from the standard curve must be multiplied by the dilution factor. A standard curve should be generated for each set of samples assayed. The outliers data were avoid using Grugg's test. Then the data which weren't in the interval of two times the SD, were discard. […] The independent experiments are pooled (N>3).
For orientation: An ELISA detects its analyte on a solid surface through an enzyme-linked reagent.

Each structure is given as a SMILES string. Square brackets hold non-standard residues; d marks the D form. Peptide text beside a SMILES is read from it.

For `CC(C)C[C@H](NC(=O)[C@H](CC(N)=O)NC(=O)[C@H](CC(C)C)NC(=O)[C@@H](NC(=O)[C@@H](C)NC(=O)[C@@H]1CCCN1C(=O)[C@H](CCCNC(=N)N)NC(=O)[C@@H](CCCCN)NC(=O)[C@@H]1CCCN1C(=O)[C@H](CCCNC(=N)N)NC(=O)[C@@H](CCCNC(=N)N)NC(=O)[C@H](CCCNC(=N)N)NC(=O)[C@H](CCCNC(=N)N)NC(=O)[C@H](CCC(N)=O)NC(=O)[C@@H](CCCNC(=N)N)NC(=O)[C@H](CCCNC(=N)N)NC(=O)[C@H](CCCCN)NC(=O)[C@H](CCCCN)NC(=O)[C@H](N)CCCNC(=N)N)[C@@H](C)O)C(=O)N[C@H](Cc1ccccc1)C(N)=O` [SEQ ID NO: 172, rKKRrQRRrRPkRPaTLNLf] (H-[dR]KKR[dR]QRR[dR]RP[dK]RP[dA]TLNL[dF]-NH2), under “LPS 6 h (10 ng/ml)”, the “LPS-induced IL6 release, potency compared with SEQ ID NO: 197, SEQ ID NO: 45 and SP 600125” value is recorded as “higher potency”; the “LPS-induced TNFα release, potency compared with SEQ ID NO: 197, SEQ ID NO: 45 and SP 600125” value is “higher potency”. Besides, the “LPS-induced TNFα release, potency compared with SEQ ID NO: 197 and SEQ ID NO: 196” value (PMA differentiated macrophages) is reported as “higher potency”. Under “PMA differentiated macrophages, LPS 6 h”, the “LPS-induced IL-6 release, potency compared with SEQ ID NO: 197 and SEQ ID NO: 196” value is listed as “higher potency”. Where the note is “THP1pma, 6 h, 3 or 10 ng/ml LPS”, the “LPS-induced cytokine and chemokine release (TNF, IL 6, MCP1)” value is “blocks LPS-induced cytokine and chemokine release”.
